Measured values reported in publication PMC12303080, “Diverse actions of 15 structurally unrelated mitochondrial uncouplers in cells and mice” (Molecular Metabolism, 2025).
Read-outs that look alike come from different tables or passages of the source.

Experiments:
CHO–K1 cells [1] = assay: Seahorse XF-96 OCR dose response of 15 uncouplers (Figure 2); assay type: cell-based, Cricetulus griseus; conditions: for EC50: mean OCR (% basal) over first 24 min post injection, ± standard error, four-parameter fit
Experimental: Stock solutions of the uncouplers and/or Rotenone/Antimycin A were diluted in Seahorse media to give the final concentration indicated in Figure 1, Figure 2, Figure 3 with 0.4% (v/v) DMSO in wells.

Swiss mice = system: Swiss mice; parameters: method as in PMID 18505478; conditions: ∼30–105 μg/kg/day in drinking water; cited from earlier work
CHO–K1 cells [2] = assay: OCR in the absence or presence of oligomycin (Supplementary Fig. 6); assay type: cell-based, Cricetulus griseus; conditions: 1 μM oligomycin, uncoupler at lowest concentration yielding MaxOCR
Experimental: ATP synthase is the major conduit through which protons re-enter the mitochondrial matrix. Thus, we sought to investigate whether the selected uncouplers could stimulate oxygen consumption in the presence of the ATP synthase inhibitor oligomycin.
Supplementary Figure 6. […] At ~24 minutes, 1 μM of oligomycin or vehicle was injected, followed by the injection of the indicated uncoupler or vehicle at ~44 minutes, and 0.5 μM Rotenone / Antimycin A at ~88 minutes.

humans = conditions: cited from earlier work
[3] = system: Arabidopsis thaliana cells; parameters: method as in PMID 22006339; conditions: cited from earlier work
db/db mice = assay: Four-week treatment by admixture in chow, metabolic phenotyping; conditions: 4 weeks
Experimental: Body weight and glucose tolerance of male db/+ and db/db mice was assessed at 8–9 weeks of age to obtain baseline measurements. Db/+ were used as lean metabolically healthy controls and given ad libitum access to chow diet. Db/db mice were stratified into 12 groups using R (V4.4.0).
Mice were on treatment for a period of four weeks, during which body weight and food intake were measured daily. […] To counter this, food traps were placed beneath hoppers and leftover food in both the traps and hoppers was weighed daily. HbA1c was measured weekly. At the end of the treatment period, a glucose tolerance test was conducted, with fed and fasted bloods collected. At termination, blood was collected via cardiac puncture under isoflurane anaesthesia. Mice were euthanised by cervical dislocation and harvested tissues were flash-frozen in liquid nitrogen and stored at −80 °C.
Mice were fasted for 6 h and then received intraperitoneal injections of 20% (w/v) dextrose at a dose of 1 g/kg lean body mass. Blood glucose (BG) was measured at the time of fasting (random-fed BG) and then again prior to the commencement of the GTT following the 6-hour daytime fast (fasted BG). […] The rate of glucose clearance was measured using the trapezoidal method for calculation of area under the curve.
HbA1c was measured once weekly using an A1cNow + Portable HbA1c Test Kit. […] HbA1c was measured in the random-fed state.
A glucose tolerance test was conducted at the end of the treatment period, with random fed and 6-hour fasted bloods collected. Blood was collected in heparin tubes and kept on ice prior to centrifugation at 2000×g for 10 min at 4 °C to extract plasma. Plasma insulin concentration was determined using the Crystal Chem Ultra-Sensitive Mouse Insulin ELISA kit, according to manufacturers' instructions for the high range (1–64 ng/mL) assay.

[4] = Drug exposure / pharmacokinetics after oral gavage; conditions: male, C57BL/6J, mouse, plasma, 10 mg/kg
Experimental: Standards were prepared by spiking known concentrations (0.1, 1, 10, 100 and 1000 ng) of the uncoupler into whole blood prior to extraction. Plasma was obtained by centrifugation at 2000×g for 10 min at 4 °C. Seven microlitres (7 μL) of plasma was precipitated in 100 μL of 90% (v/v) acetonitrile and 10% (v/v) methanol. The resulting solution was vortexed for 5 s and then centrifuged at 21,130×g for 10 min at 4 °C. The supernatant was collected in auto-sampler vials for mass spectrometry.
Plasma concentration of mitochondrial uncouplers at indicated timepoints was determined by LC-MS/MS. Error bars show SEM, n = 3 per mitochondrial uncoupler.

rat hepatocytes = system: rat hepatocytes; parameters: method as in PMID 15037196, PMID 8726330; conditions: cited from earlier work

With `O=[N+]([O-])c1ccc(O)c([N+](=O)[O-])c1` [DNP, 2,4-Dinitrophenol] the “MaxOCR lower than that seen with BAM15” value (CHO–K1 cells [1]; CHO–K1, Figure 2) was ~27%, the EC50 (CHO–K1 cells [1]; Cricetulus griseus, CHO-K1, 0.4 h, read-out: EC50 (increase of OCR), CHO–K1) was 17000 ± 1180 nM and the EC50 (CHO–K1 cells [1]; read-out: EC50 (increase of OCR), CHO–K1) was 17000 nM. For the same compound, the Lifespan extension (Swiss mice) was 7%, the “Effect of oligomycin on uncoupler-stimulated OCR” value (“Effect of oligomycin” for short) (CHO–K1 cells [2]) was “largely unaffected by the presence of oligomycin” and the “Body weight lost per week” value (humans) was 1.5 kg. The Weight loss (humans) was ≤ 1.5 kg/week and the “Increase in metabolic rate” value (humans; for every 100 mg ingested) was 11%.
With `O=[N+]([O-])c1ccc(NS(=O)(=O)c2ccc(Br)s2)cc1` [ES9, Endosidin 9] the EC50 (CHO–K1 cells [1]; CHO–K1, read-out: EC50 (increase of OCR)) was 1600 nM, the “Concentration range with sustained enhanced OCR (OCR ≥ 150% basal)” value (CHO–K1 cells [1]; CHO–K1, tested 0.32–200 μM) was ≤ 100 µM and the EC50 (CHO–K1 cells [1]; Cricetulus griseus, CHO-K1, 0.4 h, CHO–K1, read-out: EC50 (increase of OCR)) was 1610 ± 410 nM. The “Concentration increasing respiration (as low as)” value [3] was “Endosidin 9 (ES9) • ES9 has not been tested in mouse models of metabolic disease. It was identified in a chemical library screen for inhibitors of endomembrane trafficking and increased respiration in Arabidopsis thaliana cells at concentrations as low as 1 μM [71]”, the “Gastrocnemius weight vs control” value (db/db mice; 0.015% in chow) was “significantly larger gastrocnemius” and the “Gastrocnemius weight vs control” value (db/db mice; 0.03% in chow) was “significantly larger gastrocnemius”. For the same compound, the “Increase of total liver cholesterol content vs db/db control” value (db/db mice; 0.03% in chow) was ~1.7 fold, the “Post-treatment GTT AUC lower than control group” value (db/db mice; 0.03% in chow) was ~35% and the “Body weight / weight gain vs db/db controls” value (db/db mice; 0.15% BAM15, 0.02% OPC-163493, 0.015% and 0.03% ES9, NTZ and NEN both doses) was “non-significant trend for increased weight gain”. For the same compound, the “GTT ΔAUC (post minus pre-treatment)” value (db/db mice; 0.15% and 0.2% BAM15, printed 0.3% ES9) was “statistically significant protection from worsening glucose tolerance”, the “Blood glucose, HbA1c, glucose tolerance vs control” value (db/db mice; NEN both doses, 0.01% OPC, 0.015% ES9, 0.2% NTZ) was “did not have significantly lower random-fed or 6-hour fasted blood glucose” and the “HbA1c” value (db/db mice; both doses of BAM15, printed 0.3% ES9, 0.4% NTZ) was “lowered HbA1c levels”. For the same compound, the “Fasting and random fed blood glucose” value (db/db mice; either dose of BAM15, high dose ES9, high dose NTZ) was “partial efficacy”, the “Increase of liver triglyceride concentration vs db/db controls” value (db/db mice; high dose ES9 (0.03%)) was ~2.7 fold and the “Increase of total liver triglyceride content vs db/db controls” value (db/db mice; high dose ES9 (0.03%)) was ~3.4 fold. For the same compound, the “Liver triglyceride concentration vs db/db controls” value (db/db mice; lower dose ES9 (0.015%)) was “significantly increased liver triglyceride concentration”, the “Increase in liver wet weight vs db/db control” value (db/db mice; printed 0.3% ES9 in chow) was ~25% and the Cmax [4] was 72.3 µM. The “Effect of oligomycin” value (CHO–K1 cells [2]) was “largely unaffected by the presence of oligomycin”.
With `CC(=O)C1=C(O)C=C2Oc3c(C(C)=O)c(O)c(C)c(O)c3[C@@]2(C)C1=O` [UsAc, (+)-usnic acid] the “OCR at 31.6 μM” value (CHO–K1 cells [1]; CHO–K1, 31.6 μM) was ~125 % basal, the “Concentration inducing decline in OCR to sub-basal levels” value (CHO–K1 cells [1]; CHO–K1, after ∼40 min of treatment) was “over 31.6 μM” and the EC50 (CHO–K1 cells [1]; Cricetulus griseus, 0.4 h, CHO–K1, read-out: EC50 (increase of OCR)) was 430 ± 120 nM. The Concentrations acutely toxic (rat hepatocytes) was “(+)-usnic acid (UsAc) • UsAc has not been tested in mouse models of metabolic disease. Concentrations of 2–5 μM UsAc are acutely toxic to rat hepatocytes [84, 85]. • UsAc is found in the unregulated weight-loss supplement LipoKinetix [86]” and the “Effect of oligomycin” value (CHO–K1 cells [2]) was “largely unaffected by the presence of oligomycin”.
